Test results from patent US11254668B2, “Pyrazolo[1,5-A]pyrazin-4-yl and related derivatives” (Pfizer Inc., priority 2017, dated 2022).

Experiments:
Assay type in all cases: biochemical
Conditions in all cases: JAK Caliper enzyme assay
TYK2 = TYK2 (Homo sapiens (Human), UniProt P29597); test: JAK Caliper Enzyme Assay at 1 mM ATP, TYK2
Procedure, shortened: (§1)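 Inhibition is measured as reduced phosphorylation of a synthetic peptide by the recombinant human kinase domain at 1 mM ATP. Conditions give 20–30% conversion at room temperature before EDTA quench, and on-chip separation of labelled substrate and product yields percent conversion for dose–response plotting.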

JAK2 = JAK2 (Homo sapiens (Human), UniProt O60674); test: JAK Caliper Enzyme Assay at 1 mM ATP, JAK2
Procedure, shortened: as §1

JAK1 = JAK1 (Homo sapiens (Human), UniProt P23458); test: JAK Caliper Enzyme Assay at 1 mM ATP, JAK1
Procedure, shortened: (§2)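 IC50 (nM) derived from percent conversion of fluorescently labelled peptide, measured by Caliper LabChip mobility-shift separation after EDTA stop. Each JAK family kinase domain (human, recombinant) run at 1 mM ATP and room temperature, conditions set to 20-30% product; DMSO wells define uninhibited baseline.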

JAK3 = JAK3 (Homo sapiens (Human), UniProt P52333); test: JAK Caliper Enzyme Assay at 1 mM ATP, JAK3
Procedure, shortened: as §2

Sequence of JAK2 (O60674 849-1124): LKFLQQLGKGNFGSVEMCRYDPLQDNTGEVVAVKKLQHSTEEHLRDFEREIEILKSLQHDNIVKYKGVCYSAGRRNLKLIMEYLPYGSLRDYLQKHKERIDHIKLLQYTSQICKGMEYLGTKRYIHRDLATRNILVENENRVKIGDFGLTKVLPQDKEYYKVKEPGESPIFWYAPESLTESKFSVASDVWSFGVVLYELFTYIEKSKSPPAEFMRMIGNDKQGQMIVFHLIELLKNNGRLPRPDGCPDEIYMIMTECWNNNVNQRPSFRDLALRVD
Sequence of TYK2 (P29597 897-1176): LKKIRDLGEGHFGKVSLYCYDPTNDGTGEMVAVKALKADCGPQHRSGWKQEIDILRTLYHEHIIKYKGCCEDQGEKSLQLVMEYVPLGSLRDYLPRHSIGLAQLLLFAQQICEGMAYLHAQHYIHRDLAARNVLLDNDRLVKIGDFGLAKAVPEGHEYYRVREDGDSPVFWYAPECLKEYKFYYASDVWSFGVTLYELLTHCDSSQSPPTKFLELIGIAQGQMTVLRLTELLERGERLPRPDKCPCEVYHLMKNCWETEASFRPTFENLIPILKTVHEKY
Sequence of JAK1 (P23458 875-1153): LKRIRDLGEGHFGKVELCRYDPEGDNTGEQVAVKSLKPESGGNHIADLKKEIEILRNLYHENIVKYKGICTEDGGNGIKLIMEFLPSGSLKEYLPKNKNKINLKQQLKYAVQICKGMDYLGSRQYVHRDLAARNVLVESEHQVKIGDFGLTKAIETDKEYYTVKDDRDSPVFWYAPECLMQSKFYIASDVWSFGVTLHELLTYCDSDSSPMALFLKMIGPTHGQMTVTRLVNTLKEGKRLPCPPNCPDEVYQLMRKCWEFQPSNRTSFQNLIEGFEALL
Sequence of JAK3 (P52333 822-1111): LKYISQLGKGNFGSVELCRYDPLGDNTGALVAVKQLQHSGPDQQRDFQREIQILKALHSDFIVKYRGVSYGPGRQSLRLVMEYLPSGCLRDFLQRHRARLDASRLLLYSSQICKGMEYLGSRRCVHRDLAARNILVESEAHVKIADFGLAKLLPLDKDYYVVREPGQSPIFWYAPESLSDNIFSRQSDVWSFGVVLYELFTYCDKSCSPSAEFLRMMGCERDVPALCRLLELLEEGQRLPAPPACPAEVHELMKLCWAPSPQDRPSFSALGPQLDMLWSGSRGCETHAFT

Row | Structure (SMILES) | IC50 (TYK2) [µM] | IC50 (JAK2) [µM] | IC50 (JAK1) [µM] | IC50 (JAK3) [µM]
1 | Cc1nc(-c2cc(-c3cnn([C@]4(CC#N)C[C@@H](C#N)C4)n3)c3cccnc3c2)ccc1O [Example 382, trans-3-(cyanomethyl)-3-{4-[7-(5-hydroxy-6-methylpyridin-2-yl)quinolin-5-yl]-2H-1,2,3-triazol-2-yl}cyclobutanecarbonitrile] | 0.141 | 1.02 | 3.06 | > 10
2 | COc1nc(-c2cc(-c3cnn([C@]4(CC#N)C[C@H](C#N)C4)n3)c3cccnc3c2)ccc1N [Example 383, cis-3-{4-[7-(5-amino-6-methoxypyridin-2-yl)quinolin-5-yl]-2H-1,2,3-triazol-2-yl}-3-(cyanomethyl)cyclobutanecarbonitrile] | 0.007 | 0.035 | 0.059 | 4.25
3 | COc1nc(-c2cc(-c3cnn([C@]4(CC#N)C[C@@H](C#N)C4)n3)c3cccnc3c2)ccc1N [Example 384, trans-3-{4-[7-(5-amino-6-methontpyridin-2-yl)quinolin-5-yl]-2H-1,2,3-triazol-2-yl}-3-(cyanomethyl)cyclobutanecarbonitrile] | 0.033 | 0.256 | 0.769 | > 10
4 | N#CC[C@]1(n2ncc(-c3cc(-c4cc(C(N)=O)c(F)cn4)cc4ncccc34)n2)C[C@H](C#N)C1 [Example 385, 2-(5-{2-[cis-3-cyano-1-(cyanomethyl)cyclobutyl]-2H-1,2,3-triazol-4-yl}quinolin-7-yl)5-fluoropyridine-4-carboxamide] | 0.984 | 6.79 | 6.27 | > 10
5 | N#CC[C@]1(n2ncc(-c3cc(-c4cc(C(N)=O)c(F)cn4)cc4ncccc34)n2)C[C@@H](C#N)C1 [Example 386, 2-(5-{2-[trans-3-cyano-1-(cyanomethyl)cyclobutyl]-2H-1,2,3-triazol-4-yl}quinolin-7-yl)-5-fluoropyridine-4-carboxamide] | 3.76 | > 10 | > 10 | > 10
6 | N#CC[C@]1(n2ncc(-c3cc(-c4cc(O)ncc4F)cc4ncccc34)n2)C[C@@H](C#N)C1 [Example 387, cis-3-(cyanomethyl)-3-{4-[7-(5-fluoro-2-hydroxpyridin-4-yl)quinolin-5-yl]-2H-1,2,3-triazol-2-yl}cyclobutanecarbonitrile] | 4.84 | > 10 | > 10 | > 10
7 | Cc1cc(-c2cc(-c3cnn(C4(CC#N)CN(S(C)(=O)=O)C4)n3)c3cccnc3c2)cnc1N [Example 388, [3-{4-[7-(6-amino-5-methylpyridin-3-yl)quinolin-5-yl]-2H-1,2,3-triazol-2-yl}-1-(methylsulfonyl)azetidin-3-yl]acetonitrile] | 1.78 | 6.88 | > 10 | > 10
8 | CS(=O)(=O)N1CC(CC#N)(n2ncc(-c3cc(-c4cncnc4)cc4ncccc34)n2)C1 [Example 389, [1-(methylsulfonyl)-3-{4-[7-(pyrimidin-5-yl)quinolin-5-yl]-2H-1,2,3-triazol-2-yl}azetidin-3-yl]acetonitrile] | 5.04 | > 10 | > 10 | > 10
9 | N#CCC1(n2ncc(-c3cc(-c4ncccn4)cc4ncccc34)n2)CC(C#N)C1 (stereo not drawn) [Example 390, trans-3-(cyanomethyl)-3-{4-[7-(pyrimidin-2-yl)quinolin-5-yl]-2H-1,2,3-triazol-2-yl}cyclobutanecarbonitrile] | 1.28 | > 10 | > 10 | > 10
10 | N#CC[C@]1(n2ncc(-c3cc(-c4cncnc4)cc4ncccc34)n2)C[C@@H](C#N)C1 [Example 391, cis-3-(cyanomethyl)-3-{4-[7-(pyrimidin-5-yl)quinolin-5-yl]-2H-1,2,3-triazol-2-yl}cyclobutanecarbonitrile] | 2.84 | 9.84 | > 10 | > 10
11 | N#CC[C@]1(n2ncc(-c3cc(-c4cnccn4)cc4ncccc34)n2)C[C@@H](C#N)C1 [Example 392, cis-3-(cyanomethyl)-3-{4-[7-(pyrazin-2-yl)quinolin-5-yl]-2H-1,2,3-triazol-2-yl}cyclobutanecarbonitrile] | 0.66 | 3.05 | 7.11 | > 10
12 | CS(=O)(=O)N1CC(CC#N)(n2ncc(-c3cc(-c4cnc(N)nc4)cc4ncccc34)n2)C1 [Example 393, [3-{4-[7-(2-aminopyrimidin-5-yl)quinolin-5-yl]-2H-1,2,3-triazol-2-yl}-1-(methylsulfonyl)azetidin-3-yl]acetonitrile] | 3.47 | > 10 | > 10 | > 10
13 | N#CC[C@]1(n2ncc(-c3cc(-c4cc(N)ncn4)cc4ncccc34)n2)C[C@@H](C#N)C1 [Example 395, cis-3-{4-[7-(6-aminopyrimidin-4-yl)quinolin-5-yl]-2H-1,2,3-triazol-2-yl}-3-(cyanomethyl)cyclobutanecarbonitrile] | 0.078 | 0.774 | 6.35 | > 10
14 | N#CC[C@]1(n2ncc(-c3cc(-c4cncc(N)n4)cc4ncccc34)n2)C[C@@H](C#N)C1 [Example 396, cis-3-{4-[7-(6-aminopyrazin-2-yl)quinolin-5-yl]-2H-1,2,3-triazol-2-yl}-3-(cyanomethyl)cyclobutanecarbonitrile] | 0.506 | 1.48 | 3.33 | > 10
15 | N#CC[C@]1(n2ncc(-c3cc(-c4cnc(N)cn4)cc4ncccc34)n2)C[C@@H](C#N)C1 [Example 398, cis-3-{4-[7-(5-aminopyrazin-2-yl)quinolin-5-yl]-2H-1,2,3-triazol-2-yl}-3-(cyanomethyl)cyclobutanecarbonitrile] | 0.204 | 1.04 | 1.9 | > 10
16 | N#CC[C@]1(n2ncc(-c3cc(-c4cnc(N)cn4)cc4ncccc34)n2)C[C@H](C#N)C1 [Example 399, trans-3-{4-[7-(5-aminopyrazin-2-yl)quinolin-5-yl]-2H-1,2,3-triazol-2-yl}-3-(cyanomethyl)cyclobutanecarbonitrile] | 2.4 | > 10 | > 10 | > 10
17 | N#CC[C@]1(n2ncc(-c3cc(-c4ccc(N)nn4)cc4ncccc34)n2)C[C@@H](C#N)C1 [Example 400, cis-3-{4-[7-(6-aminopyridazin-3-yl)quinolin-5-yl]-2H-1,2,3-triazol-2-yl}-3-(cyanomethyl)cyclobutanecarbonitrile] | 0.016 | 0.067 | 0.748 | 9.13
18 | N#CC[C@]1(n2ncc(-c3cc(-c4ccc(N)nn4)cc4ncccc34)n2)C[C@H](C#N)C1 [Example 401, trans-3-{4-[7-(6-aminopyridazin-3-yl)quinolin-5-yl]-2H-1,2,3-triazol-2-yl}-3-(cyanomethyl)cyclobutanecarbonitrile] | 0.055 | 0.369 | 3.7 | > 10
19 | Cc1cncc(-c2cc(-c3cnn([C@]4(CC#N)C[C@H](C#N)C4)n3)c3cccnc3c2)n1 [Example 402, cis-3-(cyanomethyl)-3-{4-[7-(6-methylpyrazin-2-yl)quinolin-5-yl]-2H-1,2,3-triazol-2-yl}cyclobutanecarbonitrile] | 2.53 | 6.29 | > 10 | > 10
20 | Cc1cncc(-c2cc(-c3cnn([C@]4(CC#N)C[C@@H](C#N)C4)n3)c3cccnc3c2)n1 [Example 403, trans-3-(cyanomethyl)-3-{4-[7-(6-methylpyrazin-2-yl)quinolin-5-yl]-2H-1,2,3-triazol-2-yl}cyclobutanecarbonitrile] | 7.19 | > 10 | > 10 | > 10
21 | Cc1ncc(N)nc1-c1cc(-c2cnn([C@]3(CC#N)C[C@H](C#N)C3)n2)c2cccnc2c1 [Example 404, cis-3-{4-[7-(6-amino-3-methylpyrazin-2-yl)quinolin-5-yl]-2H-1,2,3-triazol-2-yl}-3-(cyanomethyl)cyclobutanecarbonitrile] | 7.4 | > 10 | > 10 | > 10
22 | COc1ncc(-c2cc(-c3cnn(C4(CC#N)CN(S(C)(=O)=O)C4)n3)c3cccnc3c2)cn1 [Example 405, [3-{4-[7-(2-methoxypyrimidin-5-yl)quinolin-5-yl]-2H-1,2,3-triazol-2-yl}-1-(methylsulfonyl)azetidin-3-yl]acetonitrile] | 3.06 | > 10 | > 10 | > 10
23 | N#CC[C@]1(n2ncc(-c3cc(-c4ncc(OCCO)cn4)cc4ncccc34)n2)C[C@@H](C#N)C1 [Example 406, cis-3-(cyanomethyl)-3-(4-{7-[5-(2-hydroxyethoxy)pyrimidin-2-yl]quinolin-5-yl}-2H-1,2,3-triazol-2-yl)cyclobutanecarbonitrile] | 2.15 | > 10 | > 10 | > 10
24 | COc1nc(-c2cc(-c3cnn([C@]4(CC#N)C[C@H](C#N)C4)n3)c3cccnc3c2)cnc1N [Example 407, cis-3-{4-[7-(5-amino-6-methoxypyrazin-2-yl)quinolin-5-yl]-2H-1,2,3-triazol-2-yl}-3-(cyanomethyl)cyclobutanecarbonitrile] | 0.257 | 1.01 | 1.2 | > 10
